The values below are quoted from earlier work in US20220354953A1, “PHOTODYNAMIC THERAPY COMPOSITIONS AND METHODS OF TREATMENT THEREIN” (Pinnacle Biologics, Inc., priority 2021, published 2022).

Turning to porfimer sodium, the “time stable when reconstituted with saline” value was 24 h.
